Values of other authors, collected in patent publication US20210137108A1, “REDUCED INHALATION HAZARD OF QUATERNARY AMMONIUM COMPOUNDS-PH DRIVEN PHYSIOLOGICAL RESPONSE” (priority 2016, published 2021).
Like-named read-outs stand apart in the source and are kept apart here.

How the values were obtained:
rats = test system: rats; set-up: key: L is lethal dose; S indicates survival
[1] = rats
[2] = test system: lung biomarkers, Clara cells, blood-air barrier; details: inhalation exposure at 35 mg per cubic meter

Compound	lethal dose / survival (rats; i.a., dose 15-20 mg/kg)	lethal dose / survival (rats; i.a., dose 100-150 mg/kg)	lethal dose / survival (rats; i.v., dose 15-20 mg/kg)	lethal dose / survival (rats; i.v., dose 100-150 mg/kg)	lethal dose / survival (rats; p.o., dose 250 mg/kg)	lethal dose / survival (rats; p.o., dose 1250 mg/kg)	concentrations in the lungs and kidneys compared to levels observed in the liver and tissue [1]	Clara cells and CC16 protein concentration [2]	changes in lung biomarker levels [2]	inflammatory response and blood-air barrier [2]	influx of proteins from blood vessels and alveolar space [2]	pKa
Soidum dodecylbenzensulfonate	S	L	S	L	S	L	–	–	–	–	–	–
Benzalkonium Chloride	L	–	L	–	S	L	several times higher	Damage to Clara cells and a reduced concentration in CC16 protein	significant changes	strong inflammatory response and damage to the blood-air barrier	massive influx of proteins	–
Alkyldiaminoethylglycine	S	L	S	L	S	L	–	–	–	–	–	–
NS(=O)(=O)O [Sulfamic Acid]	–	–	–	–	–	–	–	–	–	–	–	1
N=C(NCCCCCCNC(=N)NC(=N)Nc1ccc(Cl)cc1)NC(=N)Nc1ccc(Cl)cc1.O=C(O)[C@H](O)[C@@H](O)[C@H](O)[C@H](O)CO.O=C(O)[C@H](O)[C@@H](O)[C@H](O)[C@H](O)CO [Chlorhexidine gluconate]	L	–	L	–	S	S and (poor)	–	–	–	–	–	–
